Measured values from patent publication US9540343B2 (Gilead Sciences, Inc., priority 2011, dated 2017).

Key:
MT-4 cells = assay: in vitro; settings: uninfected MT-4 cells, same protocol as Test A, 5 days, CellTiter-Glo
Method in brief: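 Cytoprotection read-out: CellTiter-Glo chemiluminescence after 5 days at 37 °C of HIV-IIIb-infected MT-4 cells (m.o.i. 0.003) with compound in 10-point 3-fold dilutions, quadruplicate, 10% FBS. Cytotoxicity (CC50) measured identically without virus.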

HIV-IIIb = assay: Test A: Antiviral assay in MT4 cells; format: cell-based, HIV-1; settings: percent inhibition of virus-induced cell killing, from dose response curve at 2 uM drug; MT-4 cells infected with HIV-IIIb, 5 days, CellTiter-Glo

With `NC(=O)c1cc(-c2cccnc2[C@H](Cc2cc(F)cc(F)c2)NC(=O)Cn2nc(C(F)F)c3c2C2CC2C3)ccc1F` (stereo partly drawn) [Example 163C, 5-(2-((1S)-1-(2-(3-(difluoromethyl)-4,4-a,5,5a-tetrahydro-1H-cyclopropa[4,5]cyclopenta[1,2-c]pyrazol-1-yl)acetamido)-2-(3,5-difluorophenyl)ethyl)pyridin-3-yl)-2-fluorobenzamide] the CC50 (MT-4 cells) was 27.4 µM and the “% inhibition at 2 μM” value (HIV-IIIb) was 105%.
